Test results taken from the NIST ThermoML archive (doi:10.1021/je300974g).
± gives the expanded uncertainty stated by the source.

Experiments:
[1] = 101.33 kPa, Liquid, Vibrating tube method
[2] = xn = mol fraction of the nth substance listed; details: 101 kPa, Liquid, Vibrating tube method

CCNC=O [N-ethylformamide]
[1]
Details	mass density [kg/m3]
293.15 K	951.59 ± 0.24
298.15 K	947.48 ± 0.24
303.15 K	943.29 ± 0.24
308.15 K	939.04 ± 0.24
313.15 K	934.78 ± 0.24

CCNC=O [N-ethylformamide] + CCCOC(C)=O
mass density [kg/m3], [2]
Details	x1 = 0.1294	x1 = 0.2456	x1 = 0.3565	x1 = 0.4694	x1 = 0.5596	x1 = 0.6587	x1 = 0.7478	x1 = 0.8363	x1 = 0.9182
293.15 K	892.25 ± 0.19	899.54 ± 0.19	906.52 ± 0.2	913.89 ± 0.21	919.91 ± 0.21	926.72 ± 0.22	933 ± 0.23	939.47 ± 0.24	945.56 ± 0.25
298.15 K	887.29 ± 0.19	894.73 ± 0.19	901.8 ± 0.2	909.26 ± 0.21	915.35 ± 0.21	922.25 ± 0.22	928.63 ± 0.23	935.19 ± 0.24	941.36 ± 0.25
303.15 K	882.35 ± 0.19	889.93 ± 0.19	897.09 ± 0.2	904.67 ± 0.21	910.86 ± 0.21	917.78 ± 0.22	924.29 ± 0.23	930.93 ± 0.24	937.11 ± 0.25
308.15 K	877.39 ± 0.19	885.05 ± 0.2	892.4 ± 0.2	900.06 ± 0.21	906.31 ± 0.21	913.38 ± 0.22	919.92 ± 0.23	926.57 ± 0.24	932.85 ± 0.25
313.15 K	872.28 ± 0.19	880.14 ± 0.2	887.6 ± 0.2	895.34 ± 0.21	901.71 ± 0.21	908.84 ± 0.22	915.46 ± 0.23	922.22 ± 0.24	928.54 ± 0.25

CCCC(C)=O [pentan-2-one]
[1]
Details	mass density [kg/m3]
293.15 K	807.47 ± 0.18
298.15 K	802.46 ± 0.18
303.15 K	797.53 ± 0.18
308.15 K	792.52 ± 0.18
313.15 K	787.44 ± 0.18

CCCOC(C)=O [propyl ethanoate]
[1]
Details	mass density [kg/m3]
293.15 K	887.97 ± 0.18
298.15 K	882.21 ± 0.18
303.15 K	876.54 ± 0.18
308.15 K	870.81 ± 0.18
313.15 K	864.95 ± 0.18

C1CCOCC1 [tetrahydropyran]
[1]
Details	mass density [kg/m3]
293.15 K	884.08 ± 0.16
298.15 K	878.95 ± 0.17
303.15 K	873.79 ± 0.17
308.15 K	868.67 ± 0.17
313.15 K	863.43 ± 0.17
